From paper PMC9381536, “Non-apoptotic cell death induction via sapogenin based supramolecular particles” (Scientific Reports, 2022)

Experiments:
[1] = test system: differentially expressed genes; assay: Microarray gene expression analysis (human Clariom D); format: cell-based
Protocol: To investigate the overall cellular response to AG-08 treatment, microarray gene expression analysis of cells treated with vehicle and AG-08 treated groups was performed. […] Next, protein–protein interaction (PPI) network analysis was evaluated by the STRING (Search Tool for the Retrieval of Interacting Genes/Proteins) network. There were 61 nodes and 145 edges in the network (PPI enrichment p-value < 1 × 10^–16). […] Then, enrichment was performed using GO and KEGG pathway analyses.
Microarray analyses were conducted using the human Clariom D Affymetrix platform following the manufacturer’s instructions (902915, Thermo Fisher Scientific). Briefly, the total RNA was isolated using Total RNA Isolation Kit (Bio-Rad, US). Isolated total RNA was amplified, labeled, and hybridized on Clariom D Affymetrix platform. The arrays were stained by using GeneChip Fluidics Station 450. The cartridge was scanned with the GeneChip Scanner 3000 7G System (Affymetrix CA, USA).

A549 = test system: A549; set-up: method as in PMID 33136369; conditions: cited from earlier work
[2] = fold change ≥ 3.0, p-value ≤ 0.05

Structure (SMILES): Cc1ccc(S(=O)(=O)OC2CCC3(C)C4=CCC5(C)C(C6(C)CCC(C(C)(C)O)O6)C(O)CC5(C)C4C=CC3C2(C)C)cc1 (stereo not shown) [AG-08]
- Gene expression level (Log2) ([1]; AC006548.19, control 6.1): 4.15 Log2
- Gene expression level (Log2) ([1]; AC068797.1, control 6.72): 4.17 Log2
- Gene expression level (Log2) ([1]; AC079949.1, control 5.75): 7.8 Log2
- Gene expression level (Log2) ([1]; ACSM3, control 6.76): 4.97 Log2
- Gene expression level (Log2) ([1]; AKAP12, control 6.27): 9.04 Log2
- Gene expression level (Log2) ([1]; AL161626.1, control 2.85): 4.86 Log2
- Gene expression level (Log2) ([1]; ATF3, control 5.19): 7.04 Log2
- Gene expression level (Log2) ([1]; CCL20, control 12.58): 15.79 Log2
- Gene expression level (Log2) ([1]; CHAC1, control 7.22): 9.98 Log2
- Gene expression level (Log2) ([1]; CREB5, control 8.35): 11.14 Log2
- Gene expression level (Log2) ([1]; CSF3, control 3.29): 5.21 Log2
- Gene expression level (Log2) ([1]; CSRNP1, control 5.26): 7.09 Log2
- Gene expression level (Log2) ([1]; CXCL2, control 8.19): 10.58 Log2
- Gene expression level (Log2) ([1]; CXCL3, control 6.99): 9.67 Log2
- Gene expression level (Log2) ([1]; CXCL8, control 9.63): 12.86 Log2
- Gene expression level (Log2) ([1]; DAW1, control 4.73): 7.07 Log2
- Gene expression level (Log2) ([1]; DDIT3, control 5.64): 8.56 Log2
- Gene expression level (Log2) ([1]; DNAJB9, control 8.13): 10.33 Log2
- Gene expression level (Log2) ([1]; DUSP1, control 10.95): 12.84 Log2
- Gene expression level (Log2) ([1]; ERO1B, control 6.9): 8.83 Log2
- Gene expression level (Log2) ([1]; ETS1, control 11.21): 13.17 Log2
- Gene expression level (Log2) ([1]; FGF5, control 4.09): 6.46 Log2
- Gene expression level (Log2) ([1]; FRMD6, control 7.12): 9.43 Log2
- Gene expression level (Log2) ([1]; GADD45A, control 11.09): 13.43 Log2
- Gene expression level (Log2) ([1]; GEM, control 4.45): 6.45 Log2
- Gene expression level (Log2) ([1]; HERPUD1, control 13.87): 15.89 Log2
- Gene expression level (Log2) ([1]; HSP90B1, control 8.38): 10.67 Log2
- Gene expression level (Log2) ([1]; HSPA1A, control 13.53): 15.75 Log2
- Gene expression level (Log2) ([1]; HSPA7, control 4.94): 7.45 Log2
- Gene expression level (Log2) ([1]; IL1A, control 10.2): 12.9 Log2
- Gene expression level (Log2) ([1]; IL1RL1, control 6.82): 10.06 Log2
- Gene expression level (Log2) ([1]; IL6, control 9.32): 11.97 Log2
- Gene expression level (Log2) ([1]; JUN, control 10.47): 12.32 Log2
- Gene expression level (Log2) ([1]; KRT5, control 11.75): 9.49 Log2
- Gene expression level (Log2) ([1]; LRRC49, control 6.77): 8.59 Log2
- Gene expression level (Log2) ([1]; MAP1B, control 7.26): 9.32 Log2
- Gene expression level (Log2) ([1]; MIR1284, control 5.93): 3.95 Log2
- Gene expression level (Log2) ([1]; MIR6515, control 4.75): 6.96 Log2
- Gene expression level (Log2) ([1]; NR4A1, control 6.63): 8.84 Log2
- Gene expression level (Log2) ([1]; PTGS2, control 9.7): 11.9 Log2
- Gene expression level (Log2) ([1]; RCAN1, control 11.4): 13.43 Log2
- Gene expression level (Log2) ([1]; RN7SKP36, control 4.9): 6.69 Log2
- Gene expression level (Log2) ([1]; RNA18S5, control 10): 12.08 Log2
- Gene expression level (Log2) ([1]; RNU11-6P, control 5.74): 3.79 Log2
- Gene expression level (Log2) ([1]; RP5-1180E21.5, control 9.91): 7.94 Log2
- Gene expression level (Log2) ([1]; RP11-74J13.9, control 5.92): 3.93 Log2
- Gene expression level (Log2) ([1]; RP11-253I19.3, control 5.74): 3.7 Log2
- Gene expression level (Log2) ([1]; RP11-632K20.8, control 8.77): 6.86 Log2
- Gene expression level (Log2) ([1]; SERPINE1, control 7.07): 9.03 Log2
- Gene expression level (Log2) ([1]; SIRPG-AS1, control 6.81): 4.97 Log2
- Gene expression level (Log2) ([1]; SPRR2A, control 6.12): 8.31 Log2
- Gene expression level (Log2) ([1]; SPRY4, control 4.5): 6.6 Log2
- Gene expression level (Log2) ([1]; TNFAIP3, control 12.92): 15.77 Log2
- Gene expression level (Log2) ([1]; TNFAIP6, control 7.73): 10.32 Log2
- Gene expression level (Log2) ([1]; TNFRSF9, control 6.22): 8.07 Log2
- Fold changes ([1]; UPR gene ATF3): 3.61
- Fold changes ([1]; UPR gene CXCL8): 9.38
- Fold changes ([1]; UPR gene DAW1): 5.06
- Fold changes ([1]; UPR gene DDIT3 (CHOP)): 7.57
- Fold changes ([1]; UPR gene DNAJB9): 4.59
- Fold changes ([1]; UPR gene HERPUD1): 4.06
- Fold changes ([1]; UPR gene HSP90B1): 4.89
- Fold changes ([1]; UPR gene HYOU1): 3.14
- Gene expression level (Log2) ([1]; Y_RNA, control 2.96): 4.88 Log2
- Gene expression level (Log2) ([1]; beyly, control 5.86): 3.88 Log2
- Gene expression level (Log2) ([1]; bonawbu, control 6.42): 4.47 Log2
- Gene expression level (Log2) ([1]; borflaw, control 4.1): 6.24 Log2
- Gene expression level (Log2) ([1]; cheeju, control 7.11): 4.53 Log2
- Gene expression level (Log2) ([1]; chergy, control 8.48): 6.6 Log2
- Gene expression level (Log2) ([1]; chostarby, control 9.01): 6.86 Log2
- Gene expression level (Log2) ([1]; choygey, control 9.26): 11.85 Log2
- Gene expression level (Log2) ([1]; dymabu, control 7.28): 4.94 Log2
- Gene expression level (Log2) ([1]; ferchor, control 6.47): 4.51 Log2
- Gene expression level (Log2) ([1]; floynabo, control 3.01): 5.07 Log2
- Gene expression level (Log2) ([1]; flyleyby, control 5.79): 3.87 Log2
- Gene expression level (Log2) ([1]; flyspabu, control 6.68): 4.45 Log2
- number of genes downregulated [1, 2]: 115
- number of genes significantly affected [1, 2]: 193
- number of genes upregulated [1, 2]: 78
- Gene expression level (Log2) ([1]; glupuby, control 8.3): 6.47 Log2
- Gene expression level (Log2) ([1]; guzobu, control 4.94): 3.12 Log2
- Gene expression level (Log2) ([1]; hunimo, control 2.97): 4.9 Log2
- Gene expression level (Log2) ([1]; jawrubu, control 6.99): 4.94 Log2
- Gene expression level (Log2) ([1]; keyfybu, control 6.35): 4.42 Log2
- Gene expression level (Log2) ([1]; klobly, control 8.49): 6.7 Log2
- Gene expression level (Log2) ([1]; kluky, control 6.37): 4.18 Log2
- Gene expression level (Log2) ([1]; leeklerbu, control 4.21): 2.34 Log2
- Gene expression level (Log2) ([1]; mazybu, control 5.07): 3.22 Log2
- Gene expression level (Log2) ([1]; muneme, control 5.09): 3.26 Log2
- Gene expression level (Log2) ([1]; myklar, control 6.22): 4.37 Log2
- Gene expression level (Log2) ([1]; plergler, control 8.38): 5.85 Log2
- Gene expression level (Log2) ([1]; rersharbu, control 8.82): 6.82 Log2
- Gene expression level (Log2) ([1]; runara, control 7): 4.96 Log2
- Gene expression level (Log2) ([1]; skaskoyby, control 8.54): 6.69 Log2
- Gene expression level (Log2) ([1]; skeymeybo, control 4.08): 5.88 Log2
- Gene expression level (Log2) ([1]; skoytoyby, control 3.86): 5.73 Log2
- Gene expression level (Log2) ([1]; slorfley, control 5.24): 3.4 Log2
- Gene expression level (Log2) ([1]; slukeebu, control 7.87): 5.7 Log2
- Gene expression level (Log2) ([1]; snawperbu, control 10.99): 8.51 Log2
- Gene expression level (Log2) ([1]; sneykleebu, control 7.89): 5.94 Log2
- Gene expression level (Log2) ([1]; spaforby, control 10.31): 8.45 Log2
- Gene expression level (Log2) ([1]; sparsloy, control 9.51): 7.2 Log2
- Gene expression level (Log2) ([1]; spernawbo, control 7.18): 5.32 Log2
- Gene expression level (Log2) ([1]; sportobo, control 11.14): 9.07 Log2
- Gene expression level (Log2) ([1]; steybleebu, control 9.69): 7.5 Log2
- Gene expression level (Log2) ([1]; swawchu, control 12.82): 10.51 Log2
- Gene expression level (Log2) ([1]; sworkaby, control 2.37): 4.69 Log2
- Gene expression level (Log2) ([1]; swyjee, control 7.88): 6.02 Log2
- Gene expression level (Log2) ([1]; teesnarby, control 5.92): 4.07 Log2
- Gene expression level (Log2) ([1]; vybu, control 2.47): 4.27 Log2
- Gene expression level (Log2) ([1]; vyglabu, control 2.86): 4.99 Log2
- IC50 (A549): 2300 nM
